Test results published in PMC12223310, “Mining the heparinome for cryptic antimicrobial peptides that selectively kill Gram-negative bacteria” (Molecular Systems Biology, 2025).
≈ marks a conversion by molar mass, not a printed value. Square brackets hold non-standard residues; d marks the D form. Ends that are not written are not given here. Peptide text beside a SMILES is read from it.

How the values were obtained:
[1] = system: Pseudomonas sp (Pseudomonas aeruginosa); assay type: cell-based, Pseudomonas aeruginosa ATCC 15915
Procedure: (§1) Antimicrobial activities were determined by the microtiter broth dilution method recommended by the National Committee of Laboratory Safety and Standards (NCLSS), adapted for AMPs (Wiegand et al, [2008]). Briefly, overnight bacterial cell cultures were brought to an exponential growth state (OD600 = 0.4) in MH broth and diluted to a final concentration of 5 × 10^5 CFU/mL. In all, 1:2 peptide serial dilutions were prepared in 96-well polypropylene plates (Greiner, Frickenhausen, Germany), in MH medium containing 0.2% (w/v) of bovine serum albumin (BSA) and 0.02% glacial acetic acid. […] The lowest concentration with no colonies was taken as MBC. The results are the average of three independent studies.

Escherichia coli = assay type: cell-based, Escherichia coli BW25113
Procedure: as §1

Staphylococcus aureus = assay type: cell-based, Staphylococcus aureus ATCC 12600
Procedure: as §1

[2] = assay type: in vitro ADME
Procedure: 500 µL of 1 mM peptide stock in MiliQ water were mixed with 500 µL of human serum (Sigma-Aldrich, St. Louis, MO, USA). The mixture was incubated at 37 °C with shaking, and at various time points aliquots were taken and proteolysis was stopped with cold acetonitrile (80% in MiliQ water). The samples were chilled at 4 °C for 10 min to precipitate serum proteins, and centrifuged at 13,000 rpm at 4 °C for 15 min. The supernatant was collected and analyzed by LC and LC-MS with a –60% linear gradient of solvent B (0.036%TFA in ACN) into A (0.045% TFA in H2O) over 15 min at 1 mL/min flow rate. Unaltered peptide was determined by peak integration, expressed as the percent of the amount at 0 min, and data were fitted to a one-phase exponential decay model using GraphPad Prism 8.01 to estimate half-life time (t1/2). The results are the average of three independent experiments.

horse erythrocytes = assay type: cell-based
Procedure: Peptide toxicity was tested on horse erythrocytes (Sandín et al, [2021]). Horse defibrinated blood was washed three times in phosphate buffer saline (PBS) pH 7.2 by centrifugation at 3× 3000 rpm for 10 min, to remove excess hemoglobin in the supernatant and then diluted tenfold in PBS. Next, 50 μL of erythrocytes were added to a 1.5 mL polypropylene tube and incubated with 50 μL of a 1:2 peptide serial dilution in PBS. An erythrocyte disruption (ED) control was prepared by adding 50 μL of 0.1% TritonX-100 in PBS instead of the peptides and an intact erythrocyte (IC) control by adding 50 μL of PBS alone. All samples and controls were incubated for 2 h at 37 °C. Samples were centrifuged at 3000 rpm for 3 min, and the supernatants were transferred to a polystyrene 96-well plate and inspected for ED by reading the absorbance at 540 nm in a Tecan Spark instrument (Tecan, Männedorf, Switzerland). The results are the average of three independent studies. The hemolysis percentage was calculated as: Hemolysis%=Sample−IC/ED−IC×100

Listeria monocytogenes = assay type: cell-based, Listeria monocytogenes ATCC 19112
Procedure: as §1

in vitro = assay type: cell-based; conditions: human, MRC-5 cells
Procedure: (§2) Toxicity in MRC-5 and HepG2 cells was tested by the MTT assay, as described (Bello-Madruga et al, [2023]). Cell lines were maintained in Eagle’s minimum essential medium (MEMα) supplemented with 10% fetal bovine serum (FBS). Cells were cultured in 75-cm^2 flasks and then transferred to polystyrene 96-well plates, at 3 × 10^4 cells per well, and incubated overnight for attachment to the well surface. Then culture media was removed and 1:2 peptide serial dilutions in MEMα were added to each well and later incubated for 4 h. After incubation, peptides were removed and 100 μL of 0.5 mg/mL MTT staining solution in MEMα supplemented with 10% FBS was added to cells and incubated for 1.5 h at 37 °C. Formazan crystals in living cells were detected after disruption with 200 μL dimethyl sulfoxide and then absorbance was measured at 570 nm in a Tecan Spark instrument (Tecan, Männedorf, Switzerland). The results are the average of three independent studies.

Acinetobacter baumannii = assay type: cell-based, Acinetobacter baumannii ATCC 15308
Procedure: as §1

Enterococcus faecium = assay type: cell-based, Enterococcus faecium ATCC 19434
Procedure: as §1

Cytotoxicity, MTT assay = assay type: cell-based; conditions: human, HepG2 cells, 4 h peptide incubation in MEMα, average of three studies, read-out: LC50 (HepG2 cells)
Procedure: as §2

MRC-5 cells = assay: in vitro; assay type: cell-based
Procedure: as §2

P. aeruginosa 827651 = assay type: cell-based
Procedure: as §1

A. baumannii 3880 = assay type: cell-based
Procedure: as §1

E. coli CFT073 = assay type: cell-based
Procedure: as §1

P. aeruginosa 827632 = assay type: cell-based
Procedure: as §1

A. baumannii 3878 = assay type: cell-based
Procedure: as §1

E. coli 1166795 = assay type: cell-based
Procedure: as §1

Q: With `CC(C)C[C@@H](NC(=O)[C@@H](CC(N)=O)NC(=O)[C@H](N)Cc1c[nH]cn1)C(=O)N[C@H](Cc1ccccc1)C(=O)N[C@H](CCCNC(=N)N)C(=O)N[C@H](CCCCN)C(=O)N[C@H](CC(C)C)C(=O)N[C@@H](C(=O)N[C@H](Cc1c[nH]cn1)C(=O)N[C@H](CCCNC(=N)N)C(=O)N[C@H](CC(C)C)C(=O)N[C@H](Cc1ccccc1)C(=O)N[C@H](CCCNC(=N)N)C(=O)N[C@H](CCCNC(=N)N)C(=O)N[C@H](CC(N)=O)C(=O)N[C@H](Cc1ccccc1)C(=O)NCC(=O)N[C@H](Cc1ccc(O)cc1)C(=O)N[C@@H](C(=O)N[C@H](CC(C)C)C(=O)N[C@H](CCCNC(=N)N)C(=O)N[C@H](CO)C(=O)N[C@@H](C(N)=O)C(C)C)[C@H](C)O)[C@H](C)O` [dHBP-5] (H-[dH][dN][dL][dF][dR][dK][dL][dT][dH][dR][dL][dF][dR][dR][dN][dF]G[dY][dT][dL][dR][dS][dV]-NH2) as the compound, how does the “MIC Pseudomonas sp” value [1] read?
A: Its value is 0.2 µM (≈ 0.586 µg/mL).

Q: What about the “MIC E. coli” value (Escherichia coli) of the same compound?
A: The value was 0.1 µM (≈ 0.293 µg/mL).

Q: And the “MIC S. aureus” value (Staphylococcus aureus)?
A: Its value is 0.8 µM (≈ 2.35 µg/mL).

Q: And the “half-life in human serum” value [2]?
A: The value was “exceeding 6 hours”.

Q: What about the “Hemolysis (250 µM peptide)” value (horse erythrocytes) of the same compound?
A: The value was 29 ± 1.

Q: And the “MIC L. monocytogenes” value (Listeria monocytogenes)?
A: The value was 0.4 µM (≈ 1.17 µg/mL).

Q: What about the CC50 at 4 h (in vitro) of the same compound?
A: Its CC50 at 4 h is 30 ± 1 µM.

Q: And the “MIC A. baumannii” value (Acinetobacter baumannii)?
A: The value was 0.2 µM (≈ 0.586 µg/mL).

Q: What does the source list for HNLFRKLTHRLFRRNFGYTLRSV-NH2 [HBP-5]?
A: MBC Pseudomonas sp [1]: 0.8 µM; MIC Pseudomonas sp [1]: 0.8 µM; MBC E. coli (Escherichia coli): 0.4 µM; MIC E. coli (Escherichia coli): 0.4 µM; MBC S. aureus (Staphylococcus aureus): 6.3 µM; MIC S. aureus (Staphylococcus aureus): 6.3 µM; Hemolysis (250 µM peptide) (horse erythrocytes): 23 ± 1; MBC E. faecium (Enterococcus faecium): 6.3 µM; MIC E. faecium (Enterococcus faecium): 3.1 µM; MBC L. monocytogenes (Listeria monocytogenes): 3.1 µM; MIC L. monocytogenes (Listeria monocytogenes): 1.6 µM; CC50 at 4 h (Cytotoxicity, MTT assay): 80 µM; LC50 (MRC-5 cells, µM) (MRC-5 cells): 69 µM; CC50 at 4 h (in vitro): 69 ± 2 µM; MBC P. aeruginosa 827651 (P. aeruginosa 827651): 1.6 µM; MIC P. aeruginosa 827651 (P. aeruginosa 827651): 0.8 µM; MBC A. baumannii 3880 (A. baumannii 3880): 0.4 µM; MIC A. baumannii 3880 (A. baumannii 3880): 0.4 µM; MBC E. coli CFT073 (E. coli CFT073): 0.8 µM; MIC E. coli CFT073 (E. coli CFT073): 0.4 µM; MBC P. aeruginosa 827632 (P. aeruginosa 827632): 1.6 µM; MIC P. aeruginosa 827632 (P. aeruginosa 827632): 1.6 µM; MBC A. baumannii 3878 (A. baumannii 3878): 0.2 µM; MIC A. baumannii 3878 (A. baumannii 3878): 0.2 µM; MBC E. coli 1166795 (E. coli 1166795): < 0.1 µM; MIC E. coli 1166795 (E. coli 1166795): < 0.1 µM; MBC A. baumannii (Acinetobacter baumannii): 0.2 µM; MIC A. baumannii (Acinetobacter baumannii): 0.2 µM
